Experiment [1] deals with T1, 5-lipoxygenase (Homo sapiens, UniProt P09917).
T1 construct: Whole human blood is collected by venipuncture into EDTA; endogenous in cells; host or cells: leukocytes isolated from whole human blood (dextran sedimentation, hypotonic lysis)
T1 sequence (P09917 1-674): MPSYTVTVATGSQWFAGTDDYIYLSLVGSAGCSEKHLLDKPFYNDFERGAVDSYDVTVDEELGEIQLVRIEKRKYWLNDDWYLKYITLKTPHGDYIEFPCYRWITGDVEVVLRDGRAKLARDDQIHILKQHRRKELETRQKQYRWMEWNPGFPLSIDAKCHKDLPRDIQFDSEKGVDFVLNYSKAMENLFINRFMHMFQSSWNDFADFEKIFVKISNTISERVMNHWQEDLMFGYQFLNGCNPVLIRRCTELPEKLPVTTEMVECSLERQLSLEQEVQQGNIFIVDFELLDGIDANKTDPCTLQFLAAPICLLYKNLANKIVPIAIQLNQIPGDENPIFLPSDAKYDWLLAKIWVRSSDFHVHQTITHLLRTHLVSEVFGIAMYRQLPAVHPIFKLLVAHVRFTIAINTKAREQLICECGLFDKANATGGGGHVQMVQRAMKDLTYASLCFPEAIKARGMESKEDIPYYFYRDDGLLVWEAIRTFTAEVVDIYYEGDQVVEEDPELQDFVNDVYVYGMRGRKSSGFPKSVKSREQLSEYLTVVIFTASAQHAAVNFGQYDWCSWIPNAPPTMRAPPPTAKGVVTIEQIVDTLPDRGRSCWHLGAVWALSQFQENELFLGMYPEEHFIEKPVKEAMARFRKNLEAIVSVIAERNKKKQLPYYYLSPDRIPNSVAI
The experiment is described as follows: 5-Lipoxygenase inhibition in human leukocytes (A23187-stimulated, LTC4 radioimmunoassay). As to conditions: human leukocytes, A23187 Calcium Ionophore, LTC4 formed; read-out: IC50. It counts as cell-based. Here is the method: The test method described below measures the ability of compounds to inhibit 5-lipoxygenase activity in human leukocytes.
Whole human blood is collected by venipuncture into EDTA (1.4 mL of 0.25M per 60 mL of whole blood). The red blood cells are sedimented with a 6% dextran/0.9% sodium chloride solution at a ratio of 25 mL whole blood to 15 mL dextran solution. The blood/dextran combination is mixed by inversion and the red blood cells are allowed to settle out for 45 minutes at ambient temperature. The plasma/dextran supernatant is removed then centrifuged at ambient temperature at 3000 rpm for 10 minutes. The plasma/dextran supernatant is removed and the cells are resuspended in 10 mL of the plasma/dextran solution. […] The pellet is then resuspended into Tris buffer containing 1 mM calcium chloride to provide approximately 1.0 X 10^7 cells/mL.
Compounds are dissolved in dimethyl sulfoxide. […] Each concentration is tested in duplicate.
A 15 µL portion of Tris buffer containing 1 mM calcium chloride is added to each well of a 96 well microtiter plate. A 1 µL portion of drug solution or vehicle (dimethyl sulfoxide) is added to each well followed by the addition of an 75 µL portion of the cell suspension. The plates are gently mixed then allowed to stand at ambient temperature for 10 minutes. A 10 µL portion of 30 µM A23187 Calcium Ionophore (prepared by dissolving the ionophore in DMSO and then diluting 1:80 into the Tris buffer) is added to each well except the wells that contain the blanks (The blank wells measure the level of LTC4 production in the absence of A23187.). The plates are gently mixed then incubated at 37°C for 10 minutes.
Following incubation the plates are centrifuged at 2000 rpm for 1.5 minutes and the supernatant is removed as quickly as possible to stop the reaction. The supernatants are frozen at -20°C until they are assayed.
The supernatants are assayed for the presence of Leukotriene C4 by radioimmunoassay which is performed according to the manufacturer's (Advanced Magnetics; Cambridge, MA) instructions.

Experiment [2] relates to production of Leukotriene B4. Kind of experiment: Rat ex vivo Leukotriene B4 inhibition (oral dosing, blood challenged with A23187). As to conditions: two hours post dose. It counts as in vivo, Rats. The procedure:
The test method described below measures the ability of a compound when administered orally to rats to inhibit the production of Leukotriene B4 in their blood which is drawn and challenged.
Rats (CD, male, non-fasted, 250 g) are lightly anesthetized with carbon dioxide and an approximately 0.75 mL sample of whole blood is obtained via cardiac puncture. The sample is dispensed into 12 X 75 mm polypropylene tubes containing 8-10 µL of 10,000 units/mL heparin, mixed and then maintained on ice. The rats are allowed to recover approximately one hour then dosed orally with compound dissolved in PEG 400 at a 5 mL/Kg volume. Five (5) rats are utilized per group. Two (2) hours post dose the rats are again anesthetized with carbon dioxide and the blood sampled again via cardiac puncture.
Duplicate 200 µL portions of blood are added to 1.0 mL polypropylene tubes. A 10 µL portion of 1mM A23187 Calcium Ionophore in dimethyl sulfoxide/Tris buffer is added to each tube. The tubes are gently vortexed then incubated in a 37°C water bath for 30 minutes. The tubes are then centrifuged at 4000 rpm for 10 minutes. 50 µL portions of plasma are transferred to 1.0 mL tubes containing 200 µL of methanol. The tubes are vortexed then placed in the freezer overnight.
The tubes are removed from the freezer then centrifuged at 4000 rpm for 10 minutes. […] portions of the methanol/plasma supernatant and 10 µL methanol dilutions of LTB4 standard curve are transferred to 96 well v-bottom microtiter plates. The plates are vacuum dried at 40°C. A 40 µL portion of LTB4 radioimmunoassay buffer is added to each well. The plate is bath sonicated for 5 minutes then assayed according to the manufacturer's (Advanced Magnetics; Cambridge, MA) instructions. Percent inhibition values are obtained by comparing the level of LTB4 in the post-dose samples to the level in the pre-dose samples according to the equation below. % Inhibition =((LTB4 pre-dose) - (LTB4 post-dose))/((LTB4 pre-dose))X 100 [formula]

In experiment [3] the test system is production of Leukotriene C4 in mouse peritoneal macrophages. Kind of experiment: In vitro mouse peritoneal macrophage Leukotriene C4 inhibition (zymosan-stimulated, LTC4 radioimmunoassay). It counts as cell-based. The note with it: Zymosan 50 µg/mL. Here is the method:
The test method described below measures the ability of compounds to inhibit the production of Leukotriene C4 in mouse peritoneal macrophages.
Mice (female, CD-1, weighing 25 g) are euthanized by exposure to carbon dioxide. The peritoneal cavity is exposed by peeling back the abdominal skin. A 5 mL portion of media (M199 containing 1% fetal bovine serum, 100 units/mL of penicillin, 100 µg/mL of streptomycin, 20 units/mL of heparin and no glutamine) is injected into the exposed peritoneal cavity of each mouse. The lavage fluid is removed and pooled to yield approximately1 X 10^6 macrophages/mL. A 2 mL portion of lavage fluid is added to each well of a 24 well sterile multidish and the macrophages are allowed to adhere to the plate for 2 hours at 37°C in a 5% carbon dioxide atmosphere. The media is removed and each well is washed with 2 mL of phosphate buffered saline (PBS). A 1 mL portion of media, without heparin, but containing 5 µCi/mL of 3H-myoinositol is added to each well and the plates are incubated overnight at 37°C in a 5% carbon dioxide atmosphere. The media is removed and the cells are washed twice with 2 mL portions of PBS. A 1 mL portion of Puck's saline formulation A containing 1 mM calcium chloride, 1 mM magnesium chloride and 10 mM lithium chloride is added to each well. (The Puck's formulation is made first as a 10X solution which contains 4 g of potassium chloride, 80 g of sodium chloride and 10 g of glucose per liter. The Puck's saline formulation A is made using 10 mL of the 10X Puck's formulation, 0.47 mL of 7.5% sodium bicarbonate and 2 mL of 1M N-2-hydroxyethylpiperazine-N'-2-ethanesulfonic acid per 100 mL.)
Compounds are dissolved in dimethyl sulfoxide. Compounds are tested at concentrations of 10, 1 and 0.1 µM. Each concentration is tested in duplicate.
A 1 µL portion of compound solution or vehicle (DMSO) is added to each well and the plates are incubated for 15 minutes at 37°C in a 5% carbon dioxide atmosphere. Zymosan is then added to provide a final concentration of 50 µg/mL in each well and the plate is incubated for 1 to 2 hours at 37°C in a 5% carbon dioxide atmosphere.
Following incubation 200 µL portions of media are transferred to 12 X 75 mm tubes. The tubes are either assayed immediately or stored at -20°C until they can be assayed.
The media is assayed for the presence of Leukotriene C4 by radioimmunoassay which is performed according to the manufacturer's (Advanced Magnetics; Cambridge, MA) instructions.

Here are results for eleven compounds from patent EP0777471B1, “INHIBITION OF LEUKOTRIENE BIOSYNTHESIS WITH UREA DERIVATIVES” (MINNESOTA MINING AND MANUFACTURING COMPANY, priority 1994, dated 1996).

Values joined by “and” are separate entries in the source; they are usually repeats but may differ in a detail not shown here. Equal entries are not always repeated. A value given as a limit tells only on which side of the number the result lay.

A word on the IC50: it is the concentration that inhibits the measured activity by half. Consider `COc1cccc(NC(=O)NO)c1` [Compound 33, 1-hydroxy-3-(3-methoxyphenyl)urea], for which the half-inhibitory concentration (IC50) in experiment [1] was determined as 9100 nM. For the same compound, the “%I” value in experiment [2] (25 mg/Kg) turned out to be 26%.

In turn, `CCC(CC)N(O)C(=O)Nc1ccc([N+](=O)[O-])cc1` [Compound 40, 1-(1-Ethylpropyl)-1-hydroxy-3-(4-nitrophenyl)urea] gave a half-inhibitory concentration (IC50) in experiment [3] of 1000 nM. In experiment [2] (50 mg/Kg), the “%I” value is reported as 0%. As for `CCCN(O)C(=O)Nc1ccccc1` [Compound 55, 1-hydroxy-3-phenyl-1-propylurea], the half-inhibitory concentration (IC50) in experiment [1] is 52 nM. Moreover, the “%I” value in experiment [2] (50 mg/Kg) is recorded as 8%. Consider `Cc1cc(C)c(NC(=O)N(O)C(C)C)cc1C` [Compound 67, 1-Hydroxy-1-(1-methylethyl)-3-(2,4,5-trimethylphenyl)urea], for which the IC50 in experiment [3] was under 1000 nM. Further, the “%I” value in experiment [2] (50 mg/Kg) stood at 23%. Turning to `CN(O)C(=O)Nc1cccc(OS(=O)(=O)C(F)(F)F)c1` [Compound 2, 1-hydroxy-1-methyl-3-[3-(trifluoromethylsulfonoxy)phenyl]urea], the concentration for half-maximal inhibition (IC50) in experiment [1] stood at 40 nM. The same measure, in the same setting: as for `CN(O)C(=O)Nc1cccc(SC(F)(F)F)c1` [Compound 4, 1-hydroxy-1-methyl-3-[3-(trifluoromethylthio)phenyl]urea], the figure is 27 nM. Consider `CCC(C)N(O)C(=O)Nc1ccccc1` (centres unmarked) [Compound 69, 1-Hydroxy-1-(1-methylpropyl)-3-phenylurea], for which the IC50 in experiment [3] is under 1000 nM. For the same compound, in experiment [2] (50 mg/Kg), the “%I” value is 71%.

As to `O=C(Nc1ccccc1)N(O)C1CCCCCCC1` [Compound 36, 1-Cyclooctyl-1-hydroxy-3-phenylurea], the IC50 in experiment [3] was determined as 200 nM. In experiment [2] (50 mg/Kg), the “%I” value is on record as 7%. `CCC(CC)N(O)C(=O)Nc1ccc(SC)cc1` [Compound 39, 1-(1-Ethylpropyl)-1-hydroxy-3-[4-(methylthio)phenyl]urea] had a concentration for half-maximal inhibition (IC50) in experiment [3] of under 1000 nM. The “%I” value in experiment [2] (50 mg/Kg) is listed as 59%.

As for `CCCCCN(O)C(=O)Nc1ccccc1` [Compound 56, 1-hydroxy-1-pentyl-3-phenylurea], the IC50 in experiment [3] was under 100 nM. For the same compound, in experiment [2] (50 mg/Kg), the “%I” value is 6% and 13%. `CN(O)C(=O)Nc1ccc([N+](=O)[O-])cc1` [Compound 13, 1-hydroxy-1-methyl-3-(4-nitrophenyl)urea] gave an IC50 in experiment [3] of 1000 nM. In experiment [2] (50 mg/Kg), the “%I” value was determined as 23%.
